In series [1] the test system is intracellular L. mexicana amastigotes. The series is described as follows: microbe, parasite or virus in culture. In kind it is cell-based, Leishmania mexicana. As to conditions: bone marrow derived macrophages, Giemsa staining. Here is the method: Bone marrow derived macrophages (BMDMs) were isolated from BALB/c mice and cultured as previously described. Briefly, bone marrow was harvested from long bones of mice and the isolated cells were seeded at a concentration of 2 x 10^6 cells/mL in petri dishes with RPMI media supplemented with 10% FBS, 1% Penn-Strep and 10% L929 conditioned media (LCM). Completely differentiated BMDMs are obtained after 7 days of culture with media change every 2 days. Harvested cells were seeded onto 10 mm glass cover slips at 5 x 10^5 cells/ well of a 24 well plate in DMEM media (without LCM) and allowed to adhere overnight. BMDM cells are then infected overnight with LV82 L. donovani or L. mexicana (NR-51210) at a multiplicity of infection of 10. After infection, cells were washed three times with fresh media to remove extracellular promastigotes and treated with compounds for a 72-hour incubation. BMDM cells were then washed with phosphate buffered saline, fixed with ice-cold methanol, and stained with Giemsa (5% v/v in water). The cover slips with stained cells are mounted onto glass slides and imaged on EVOS XL (100X, Thermo Fisher Scientific). Leishmania amastigotes per 100 macrophages were determined in a blinded manner.

Series [2] can be described thus: Effect of compounds on host cell viability (MTT). In kind it is cell-based. As to conditions: human. An outline of the steps: (§1)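 Viability was read as MTT reduction: 2 h with 0.5 mg/mL, formazan dissolved in isopropanol, A560 with 670 nm background subtracted. The macrophages were PMA-differentiated THP-1 cells (150 nM, 72 h), treated 24 h at 1–50 μM or, for some compounds, 72 h at 1–300 μM.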

A further series deals with THP-1 macrophages. Kind of series: Effect of compounds on host cell viability (MTT). In kind it is cell-based. An outline of the steps: as §1
Series [3] relates to extracellular L. donovani promastigotes. Kind of series: Effect of compounds on promastigote viability (resazurin assay). It is filed as cell-based, Leishmania donovani. As to conditions: for MIC50: Leishmania donovani, 72-hour incubation. Here is the method: (§2) The effect of compounds on extracellular promastigotes was evaluated using a resazurin-based assay as described previously. In short, late log phase Leishmania promastigotes were seeded in a 96 well plate at 1 x 10^5 parasites per well and treated with drugs (0.5 – 200 μM) for 72 hours at 25°C. Ten microliters of resazurin (0.02% w/v) were added to the treated parasites to achieve a final concentration of 0.002% w/v and incubated for 24 hours. Viability of the promastigotes was assessed by fluorescence (excitation 544 nm, emission 590 nm, SpectraMax M2, Molecular Devices).
(Alamar Blue is a resazurin reagent that responds to reducing activity.)

For series [4], the system named is extracellular L. mexicana promastigotes. The series is described as above. It is filed as cell-based, Leishmania mexicana. Here is the method:
as §2

Another series addresses T1, lysozyme (Homo sapiens, UniProt P61626).
T1 construct: endogenous in cells; host or cells: THP-1 cells differentiated with PMA and infected with L. mexicana promastigotes; cell lysate
T1 sequence (P61626 19-148): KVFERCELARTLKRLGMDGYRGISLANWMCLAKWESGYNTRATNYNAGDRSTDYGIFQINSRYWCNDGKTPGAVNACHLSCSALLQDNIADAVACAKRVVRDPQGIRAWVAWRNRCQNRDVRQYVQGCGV
The series is described as follows: Affinity capture with 197-bead in Leishmania infected macrophage lysate. It is filed as binding. As to conditions: 197-bead vs control bead. Here is the method:
To generate cell lysate, ten million THP-1 cells were plated overnight in a 10cm dish, then differentiated with 150 nM phorbol 12-myristate 13-acetate (PMA) for 72 hours. The resulting macrophages were infected with L. mexicana promastigotes at a multiplicity of infection of 1:10 and incubated for 18 hours. After infection, cells were washed three times with PBS to remove extracellular promastigotes. Cells were then collected by scraping and pelleted with centrifugation. The cell pellet was resuspended in cell buffer (50mM Tris-HCl, 150mM NaCl, 2mM EDTA, 0.5% triton-x-100) and subjected to five freeze-thaw cycles. Samples were centrifuged 14,000g x 10 minutes to remove cellular debris. Protein concentration of supernatant was determined by BCA assay and cell lysate was stored at −80°C until further use.
Functionalized agarose beads were made as follows. NHS activated agarose beads were washed three times to remove acetone and resuspended in PBS to create a slurry. 494 (197 with ligation chemical handle) was prepared in 0.3 mL at 25mM in DMSO and 1.7 mL PBS was added to 1 mL of agarose slurry for a final volume of 3 mL at a concentration of 2.5mM (10% v/v DMSO). […]
500 μg cell lysate was incubated with 200 μL slurry at a final volume of 1 mL for 1 hr. […] Peptides were extracted, acidified, desalted using C18 spin columns, and analyzed by LC-MS/MS using Thermo Easy nLC 1200-QExactive HF. […]

pIC50: −log10 of the molar value. Values after ≈ are worked out from the molar mass of the structure shown. Where two headings read alike, the source gives them in different places.

In general, pIC50 refers to the IC50 on a negative log10 scale, so that one unit is a factor of ten. A high value points to a small IC50. In general, CC50 refers to the concentration at which the toxic effect on the cells reaches its halfway point. Low values mean harm at low concentration, high ones better tolerance by the cells. The MIC50 is an inhibitory concentration at the 50% level, which refers to growth in some studies and to a panel of isolates in others. `O=C(CNCc1cccc(F)c1)Nc1ccc(-n2cc(C(F)(F)F)nc2-c2ccc(-c3ccc(C(F)(F)F)cc3)cc2)cc1` [Compound 197]: the pIC50 in series [1] (Leishmania mexicana, Macrophage) was above 5.70; in series [1], 5.77. The CC50 at 24 h in series [2] is above 50 µM. In series [2], this compound showed a CC50 at 72 h above 300 µM. For the same compound, the CC50 with THP-1 macrophages is above 300 µM. Further, the “reduction in macrophage viability” value in the series with THP-1 macrophages (72hr incubation up to 300μM) is listed as “Neither compound had any reduction”. The MIC50 is 6.4 µM (≈ 3.92 µg/mL) in series [3] (resazurin assay (Table 3), read-out: L. donovani Extracellular promastigotes MIC50); 6.4 µM (≈ 3.92 µg/mL) in series [3] (resazurin assay, read-out: Extracellular L. donovani promastigotes MIC50); above 200 µM in series [4] (Leishmania mexicana, 72-hour incubation). For the same compound, in series [3] (resazurin assay, strain not named for 53, L. donovani for 197), the “direct effect on extracellular promastigote viability” value is on record as “some direct reduction”. Moreover, in series [4], the “effect on L. mexicana extracellular promastigote viability” value is reported as “no effect”. Besides, on lysozyme, the “affinity capture abundance of lysozyme, Log2 fold change” value was found to be 6.57.

The record behind these values is publication doi:10.1101/2025.11.04.686469, “Discovery of Host-Directed Small Molecules with Broad Anti-Leishmanial Efficacy” (bioRxiv, 2025).
